# Test results taken from EP0048613B1, “4-0-Substituted -2-deoxystreptamine aminoglycoside derivatives, their preparation and formulations containing them” (ELI LILLY AND COMPANY, priority 1980, dated 1982).
# Columns and labels:
# [1] = tested on: Staphylococcus aureus 3055; assay: Subcutaneous therapy of experimental bacterial infection in mice; assay type: in vivo; details: subcutaneous doses at 1 and 5 hours post infection
# Procedure: Table II illustrates the effective dose (ED50, effective dose to protect 50 percent of the test animals) for representative compounds of this invention against an experimental bacterial infection in mice.
# The EDso values were determined as described by W. E. Wick et al., Journal of Bacteriology, 81 [No. 2], 233-235 (1961).
# Shigella sonnei N9 = assay: MIC, standard agar dilution test; assay type: cell-based
# Excerpt: (§1) The antibacterial activity of the deprotected compounds of this invention is illustrated by the following in vitro and in vivo test data obtained with representative compounds. In Table I, the minimum inhibitory concentration (MIC) for representative compounds against a wide range of gram-positive and gram-negative bacteria is presented. The MIC values were obtained by the standard agar dilution test.
# Hemophilus influenzae 76 = assay: MIC, standard agar dilution test; assay type: cell-based
# Excerpt: as §1
# [2] = tested on: Klebsiella pneumoniae KAE; assay: MIC, standard agar dilution test; assay type: cell-based
# Excerpt: as §1
# [3] = tested on: Staphylococcus aureus X1.1; assay: MIC, standard agar dilution test; assay type: cell-based
# Excerpt: as §1
# Proteus morganii PR15 = assay: MIC, standard agar dilution test; assay type: cell-based
# Excerpt: as §1
# [4] = tested on: Enterobacter aerogenes X68; assay: MIC, standard agar dilution test; assay type: cell-based
# Excerpt: as §1
# Serratia marcescens SE3 = assay: MIC, standard agar dilution test; assay type: cell-based
# Excerpt: as §1
# [5] = tested on: Hemophilus influenzae C.L.; assay: MIC, standard agar dilution test; assay type: cell-based
# Excerpt: as §1
# [6] = tested on: Streptococcus pneumoniae Park I; assay: MIC, standard agar dilution test; assay type: cell-based
# Excerpt: as §1
# [7] = tested on: Bordetella bronchiseptica 16; assay: MIC, standard agar dilution test; assay type: cell-based
# Excerpt: as §1
# Proteus rettgeri PR7 = assay: MIC, standard agar dilution test; assay type: cell-based
# Excerpt: as §1
# Serratia marcescens X99 = assay: MIC, standard agar dilution test; assay type: cell-based
# Excerpt: as §1
# [8] = tested on: Salmonella typhimurium 1335; assay: MIC, standard agar dilution test; assay type: cell-based
# Excerpt: as §1
# [9] = tested on: Staphylococcus epidermidis EPI2; assay: MIC, standard agar dilution test; assay type: cell-based
# Excerpt: as §1
# [10] = tested on: Enterobacter aerogenes EB17; assay: MIC, standard agar dilution test; assay type: cell-based
# Excerpt: as §1
# [11] = tested on: Staphylococcus aureus S13E; assay: MIC, standard agar dilution test; assay type: cell-based
# Excerpt: as §1
# [12] = tested on: Staphylococcus aureus X400; assay: MIC, standard agar dilution test; assay type: cell-based
# Excerpt: as §1
# [13] = tested on: Streptococcus group D 9960; assay: MIC, standard agar dilution test; assay type: cell-based
# Excerpt: as §1
# [14] = tested on: Staphylococcus epidermidis EPI1; assay: MIC, standard agar dilution test; assay type: cell-based
# Excerpt: as §1
# [15] = tested on: Pseudomonas aeruginosa Ps18; assay: MIC, standard agar dilution test; assay type: cell-based
# Excerpt: as §1
# [16] = tested on: Citrobacter freundii CF17; assay: MIC, standard agar dilution test; assay type: cell-based
# Excerpt: as §1
# [17] = tested on: Enterobacter cloacae 265A; assay: MIC, standard agar dilution test; assay type: cell-based
# Excerpt: as §1
# [18] = tested on: Staphylococcus aureus V41; assay: MIC, standard agar dilution test; assay type: cell-based
# Excerpt: as §1
# [19] = tested on: Enterobacter aerogenes C32; assay: MIC, standard agar dilution test; assay type: cell-based
# Excerpt: as §1
# Proteus rettgeri C24 = assay: MIC, standard agar dilution test; assay type: cell-based
# Excerpt: as §1
# [20] = tested on: Streptococcus pyogenes C203; assay: MIC, standard agar dilution test; assay type: cell-based
# Excerpt: as §1
# Enterobacter cloacae EB5 = assay: MIC, standard agar dilution test; assay type: cell-based
# Excerpt: as §1
# [21] = tested on: Klebsiella pneumoniae X26; assay: MIC, standard agar dilution test; assay type: cell-based
# Excerpt: as §1
# [22] = tested on: Pseudomonas aeruginosa X239; assay: MIC, standard agar dilution test; assay type: cell-based
# Excerpt: as §1
# [23] = tested on: Salmonella heidelberg X514; assay: MIC, standard agar dilution test; assay type: cell-based
# Excerpt: as §1
# Proteus inconstans PR33 = assay: MIC, standard agar dilution test; assay type: cell-based
# Excerpt: as §1
# [24] = tested on: Pseudomonas aeruginosa X528; assay: MIC, standard agar dilution test; assay type: cell-based
# Excerpt: as §1
# Escherichia coli EC14 = assay: MIC, standard agar dilution test; assay type: cell-based
# Excerpt: as §1
# Escherichia coli TEM = assay: MIC, standard agar dilution test; assay type: cell-based
# Excerpt: as §1
# Escherichia coli N10 = assay: MIC, standard agar dilution test; assay type: cell-based
# Excerpt: as §1
# [25] = tested on: Streptococcus group D X66; assay: MIC, standard agar dilution test; assay type: cell-based
# Excerpt: as §1
# [26] = read-out: Minimum inhibitory concentration
# [27] = Haemophilus influenzae, read-out: Minimum inhibitory concentration
# [28] = Klebsiella aerogenes, read-out: Minimum inhibitory concentration
# [29] = Providencia rettgeri, read-out: Minimum inhibitory concentration
# [30] = Salmonella enterica, read-out: Minimum inhibitory concentration
compound,measurement,setting,value
"CNC1C(OC2OC(CO)C(N)C(O)C2O)OC2CC(NC(=O)C(O)CCN)C(OC3C(N)CC(N)C(O)C3O)OC2C1O (stereo not drawn) [Test compound 1, 2′-N-(S-γ-Amino-α-hydroxybutyryl)apramycin]",ED50,"[1]; Staphylococcus aureus, 3055, sc, challenged with 68.1 LD50's, read-out: Effective dose (ED50)",6.5 mg/kg
same,MIC,Shigella sonnei N9; [26],32 µg/mL
same,MIC,Hemophilus influenzae 76; [27],32 µg/mL
same,MIC,[2]; [26],16 µg/mL
same,MIC,[3]; [26],16 µg/mL
same,MIC,"Proteus morganii PR15; Morganella morganii, read-out: Minimum inhibitory concentration",128 µg/mL
same,MIC,[4]; [28],16 µg/mL
same,MIC,Serratia marcescens SE3; [26],32 µg/mL
same,MIC,[5]; [27],64 µg/mL
same,MIC,"[6]; Streptococcus pneumoniae, read-out: Minimum inhibitory concentration",32 µg/mL
same,MIC,[7]; [26],128 µg/mL
same,MIC,Proteus rettgeri PR7; [29],8 µg/mL
same,MIC,Serratia marcescens X99; [26],16 µg/mL
same,MIC,[8]; [30],16 µg/mL
same,MIC,[9]; [26],4 µg/mL
same,MIC,[10]; [28],16 µg/mL
same,MIC,"[11]; Staphylococcus aureus, S13E, read-out: Minimum inhibitory concentration",16 µg/mL
same,MIC,[12]; [26],64 µg/mL
same,MIC,"[13]; D9960, read-out: Minimum inhibitory concentration",> 128 µg/mL
same,MIC,"[14]; Staphylococcus epidermidis, EPI1, read-out: Minimum inhibitory concentration",16 µg/mL
same,MIC,[15]; [26],128 µg/mL
same,MIC,[16]; [26],32 µg/mL
same,MIC,[17]; [26],64 µg/mL
same,MIC,[18]; [26],32 µg/mL
same,MIC,[19]; [28],16 µg/mL
same,MIC,Proteus rettgeri C24; [29],16 µg/mL
same,MIC,[20]; [26],32 µg/mL
same,MIC,Enterobacter cloacae EB5; [26],32 µg/mL
same,MIC,[21]; [26],8 µg/mL
same,MIC,[22]; [26],64 µg/mL
same,MIC,[23]; [30],32 µg/mL
same,MIC,"Proteus inconstans PR33; Providencia alcalifaciens, read-out: Minimum inhibitory concentration",16 µg/mL
same,MIC,[24]; [26],128 µg/mL
same,MIC,Escherichia coli EC14; [26],32 µg/mL
same,MIC,"Escherichia coli TEM; Escherichia coli, read-out: Minimum inhibitory concentration",8 µg/mL
same,MIC,Escherichia coli N10; [26],16 µg/mL
same,MIC,"[25]; DX66, read-out: Minimum inhibitory concentration",> 128 µg/mL
2′-N-(S-γ-Amino-α-hydroxybutyryl)nebramine [Test compound 5],Effective dose (ED50),[1]; challenged with 1794 LD50's,>70^3 mg/kg×2
same,Minimum inhibitory concentration,Shigella sonnei N9,64 µg/mL
same,Minimum inhibitory concentration,Hemophilus influenzae 76,64 µg/mL
same,Minimum inhibitory concentration,[2],64 µg/mL
same,Minimum inhibitory concentration,[3],32 µg/mL
same,Minimum inhibitory concentration,Proteus morganii PR15,64 µg/mL
same,Minimum inhibitory concentration,[4],64 µg/mL
same,Minimum inhibitory concentration,Serratia marcescens SE3,>128 µg/mL
same,Minimum inhibitory concentration,[5],64 µg/mL
same,Minimum inhibitory concentration,"[6]; Streptococcus pneumoniae Park I, agar dilution",128 µg/mL
same,Minimum inhibitory concentration,[7],>128 µg/mL
same,Minimum inhibitory concentration,Proteus rettgeri PR7,32 µg/mL
same,Minimum inhibitory concentration,Serratia marcescens X99,128 µg/mL
same,Minimum inhibitory concentration,[8],128 µg/mL
same,Minimum inhibitory concentration,[9],32 µg/mL
same,Minimum inhibitory concentration,[10],64 µg/mL
same,Minimum inhibitory concentration,"[11]; Staphylococcus aureus S13E, agar dilution",32 µg/mL
same,Minimum inhibitory concentration,[12],64 µg/mL
same,Minimum inhibitory concentration,[13],>128 µg/mL
same,Minimum inhibitory concentration,"[14]; Staphylococcus epidermidis EPI1, agar dilution",64 µg/mL
same,Minimum inhibitory concentration,[15],128 µg/mL
same,Minimum inhibitory concentration,[16],64 µg/mL
same,Minimum inhibitory concentration,[17],>128 µg/mL
same,Minimum inhibitory concentration,[18],64 µg/mL
same,Minimum inhibitory concentration,[19],64 µg/mL
same,Minimum inhibitory concentration,Proteus rettgeri C24,64 µg/mL
same,Minimum inhibitory concentration,[20],128 µg/mL
same,Minimum inhibitory concentration,Enterobacter cloacae EB5,128 µg/mL
same,Minimum inhibitory concentration,[21],64 µg/mL
same,Minimum inhibitory concentration,[22],128 µg/mL
same,Minimum inhibitory concentration,[23],128 µg/mL
same,Minimum inhibitory concentration,Proteus inconstans PR33,64 µg/mL
same,Minimum inhibitory concentration,[24],>128 µg/mL
same,Minimum inhibitory concentration,Escherichia coli EC14,>128 µg/mL
same,Minimum inhibitory concentration,"Escherichia coli TEM; Escherichia coli TEM, agar dilution",32 µg/mL
same,Minimum inhibitory concentration,Escherichia coli N10,128 µg/mL
same,Minimum inhibitory concentration,[25],>128 µg/mL
